Measurements: publication PMC9318686, “Identification of NAPRT Inhibitors with Anti-Cancer Properties by In Silico Drug Discovery” (Pharmaceuticals, 2022)

What follows are compounds tested against T1, recombinant human NAPRT (nicotinic acid phosphoribosyltransferase) (Homo sapiens, UniProt Q6XQN6) (assay: HPLC of NAMN formation, Michaelis-Menten fit).
T1 construct: dimer
T1 sequence (Q6XQN6 1-538): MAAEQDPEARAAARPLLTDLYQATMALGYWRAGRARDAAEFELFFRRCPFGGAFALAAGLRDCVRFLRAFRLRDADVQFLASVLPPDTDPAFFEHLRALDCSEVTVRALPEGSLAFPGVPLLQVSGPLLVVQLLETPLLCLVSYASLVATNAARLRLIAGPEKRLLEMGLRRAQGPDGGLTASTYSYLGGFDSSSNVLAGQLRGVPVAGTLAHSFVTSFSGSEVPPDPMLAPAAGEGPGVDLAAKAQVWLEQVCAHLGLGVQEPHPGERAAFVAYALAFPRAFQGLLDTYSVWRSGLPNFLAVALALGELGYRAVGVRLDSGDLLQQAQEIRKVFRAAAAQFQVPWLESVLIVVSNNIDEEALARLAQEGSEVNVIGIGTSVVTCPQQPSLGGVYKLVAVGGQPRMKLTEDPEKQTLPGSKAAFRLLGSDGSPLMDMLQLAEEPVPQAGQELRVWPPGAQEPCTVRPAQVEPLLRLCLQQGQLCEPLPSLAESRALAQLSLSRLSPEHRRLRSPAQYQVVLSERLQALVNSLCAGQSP
Assay type: biochemical
Excerpt: HPLC of NAMN formation, Michaelis-Menten fit on recombinant human NAPRT (nicotinic acid phosphoribosyltransferase)

| Ki [µM] | SMILES |
| --- | --- |
| 295 | O=C(O)c1cnsn1 [compound 19] |
| 2280 | O=C(N[C@@H](C(=O)c1ccccc1)n1cnccc1=O)c1ccccc1 [compound 1] |
| 308 | O=C(O)c1cnccc1O [compound 8] |
